# Laboratory results reported in patent US12398111B2, “Triazine compounds and pharmaceutical use thereof” (Japan Tobacco Inc., priority 2014, dated 2025).
# Tested on: prostaglandins in guinea pig secondary aqueous humor
# Experiment: Effect on prostaglandin composition in guinea pig aqueous humor (instillation of 0.003% ophthalmic solution, LC/MS/MS)
# Format: in vivo, Hartley male guinea pig
# Settings: 24 hr after instillation of 0.003% ophthalmic solution
# Protocol: A test article was dissolved in saline containing 0.5% polysorbate80 (Fluka) and 0.003% ophthalmic solution (pH 7.0-8.0) was prepared. The test article was administered to Hartley male guinea pig by instillation of 20 μL thereof to one eye by using a micropipette. After instillation, the lacrimal part was lightly fixed by gently pressing the lower eyelid for about 15 seconds. The opposite eye was treated in the same manner. To the vehicle group was administered the medium (0.5% polysorbate-containing saline) by a method similar to that for the test article. After 23 hr from the instillation, Mydrin P (registered trade mark) 0.5% ophthalmic solution (Santen Pharmaceutical Co., Ltd., general name: tropicamide/phenylephrine hydrochloride) was dropwisely added by one drop to the both eyes of a guinea pig to cause mydriasis. The guinea pig was anesthetized with Escain (registered trade mark) inhalation anesthetics (Pfizer Inc., general name: isoflurane), the cornea of the both eyes was tapped with a 30G injection needle, and the leaked aqueous humor (primary aqueous humor) was collected. One hour later (24 hr after instillation), the guinea pig was anesthetized again with isoflurane, and the secondary aqueous humor was collected in the same manner. The concentration of prostaglandins in the secondary aqueous humor obtained from each group (4 guinea pigs, 8 eyes) was measured by the LC/MS/MS system (Ultra high performance liquid chromatography: Nexera (registered trademark) manufactured by Shimadzu Corporation, mass spectrometer: […]), and the concentration ratio of each prostaglandin concentration relative to the total of all prostaglandin concentrations was calculated.
Structure (SMILES),6-keto-PGF1α (%),PGD2 (%),PGE2 (%),PGF2α (%),TXB2 (%)
"CC(C)c1cc(-c2nc(O)nc(-c3cc(CNC(=O)C(C)(C)C(F)(F)F)ccc3Cl)n2)ccc1C(F)(F)F [Example 1-130, N-{4-chloro-3-[4-hydroxy-6-(3-isopropyl-4-trifluoromethylphenyl)-1,3,5-triazin-2-yl]benzyl}-3,3,3-trifluoro-2,2-dimethylpropionamide]",11.2,6.2,73.6,8,1
"CC1(COc2ccc(-c3nc(O)nc(-c4cc(CNC(=O)C(C)(C)C(F)(F)F)ccc4Cl)n3)cc2)CC1 [Example 1-128, N-(4-chloro-3-{4-hydroxy-6-[4-(1-methylcyclopropylmethoxy)phenyl]-1,3,5-triazin-2-yl}benzyl)-3,3,3-trifluoro-2,2-dimethylpropionamide]",29.7,19.3,36.2,13.9,0.8
"CCCOc1ccc(-c2nc(O)nc(-c3cc(CNC(=O)C(C)(C)C(F)(F)F)ccc3Cl)n2)cc1 [Example 1-122, N-{4-chloro-3-[4-hydroxy-6-(4-propoxyphenyl)-1,3,5-triazin-2-yl]benzyl}-3,3,3-trifluoro-2,2-dimethylpropionamide]",27.7,23,37.3,11.7,0.2
"CC(C)Cc1ccc(-c2nc(O)nc(-c3cc(CNC(=O)C(C)(C)C)ccc3Cl)n2)cc1 [Example 1-51, N-{4-chloro-3-[4-(4-isobutylphenyl)-6-hydroxy-1,3,5-triazin-2-yl]benzyl}-2,2-dimethylpropionamide]",21.7,13.2,50.7,14,0.4
"Cc1ccc(-c2nc(O)nc(-c3cc(CNC(=O)C(C)(C)C(F)(F)F)ccc3Cl)n2)cc1F [Example 1-81, N-{4-chloro-3-[4-(3-fluoro-4-methylphenyl)-6-hydroxy-1,3,5-triazin-2-yl]benzyl}-3,3,3-trifluoro-2,2-dimethylpropionamide]",15.7,13.2,60,9.8,1.3
"CO[C@](C)(C(=O)NCc1ccc(Cl)c(-c2nc(O)nc(-c3ccc(Cl)c(C)c3)n2)c1)C(F)(F)F [Example 1-136, (R)—N-{4-chloro-3-[4-(4-chloro-3-methylphenyl)-6-hydroxy-1,3,5-triazin-2-yl]benzyl}-3,3,3-trifluoro-2-methoxy-2-methylpropionamide]",17.3,7.4,66.7,7.9,0.7
"CC(C)COc1ccc(-c2nc(O)nc(-c3cc(CNC(=O)C(C)(C)C(F)(F)F)ccc3Cl)n2)cc1 [Example 1-109, N-{4-chloro-3-[4-hydroxy-6-(4-isobutoxyphenyl)-1,3,5-triazin-2-yl]benzyl}-3,3,3-trifluoro-2,2-dimethylpropionamide]",37.5,18.9,29.5,14.1,0.1

# Target: T1, human mPGES-1 (Homo sapiens, UniProt O14684)
# T1 construct: made in house; host or cells: FreeStyle CHO-S cells (Chinese hamster ovary), transient transfection with pcDNA3.1(+)/human mPGES-1; microsome fraction used
# T1 sequence (O14684 1-152): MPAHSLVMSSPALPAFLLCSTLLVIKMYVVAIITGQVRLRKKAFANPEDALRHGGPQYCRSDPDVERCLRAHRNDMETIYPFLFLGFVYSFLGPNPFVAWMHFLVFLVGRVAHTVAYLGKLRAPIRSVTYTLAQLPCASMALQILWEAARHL
# Experiment: Evaluation of human mPGES-1 enzyme inhibitory activity (PGE2 measured by HTRF, microsome fraction of CHO-S cells expressing human mPGES-1)
# Format: biochemical
# Settings: IC50 value; microsome fraction of CHO-S cells expressing human mPGES-1, PGE2 by HTRF
# Procedure, shortened: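 Enzyme source: microsomes from CHO-S cells transfected with human mPGES-1 and cultured 48 hr, diluted to 5 μg/mL protein in reduced GSH (12.5 mmol/L KPB solution). Test articles were in 0.1 mol/L potassium phosphate pH 7.4, final DMSO 2% (v/v). PGE2 formed was quantified by HTRF.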
row,Structure (SMILES),IC50 [nM]
1,"CC(C)c1cc(-c2nc(O)nc(-c3cc(CNC(=O)C(C)(C)C(F)(F)F)ccc3Cl)n2)ccc1C(F)(F)F [Example 1-130, N-{4-chloro-3-[4-hydroxy-6-(3-isopropyl-4-trifluoromethylphenyl)-1,3,5-triazin-2-yl]benzyl}-3,3,3-trifluoro-2,2-dimethylpropionamide]",9
2,"CC1(COc2ccc(-c3nc(O)nc(-c4cc(CNC(=O)C(C)(C)C(F)(F)F)ccc4Cl)n3)cc2)CC1 [Example 1-128, N-(4-chloro-3-{4-hydroxy-6-[4-(1-methylcyclopropylmethoxy)phenyl]-1,3,5-triazin-2-yl}benzyl)-3,3,3-trifluoro-2,2-dimethylpropionamide]",1.3
3,"CCCOc1ccc(-c2nc(O)nc(-c3cc(CNC(=O)C(C)(C)C(F)(F)F)ccc3Cl)n2)cc1 [Example 1-122, N-{4-chloro-3-[4-hydroxy-6-(4-propoxyphenyl)-1,3,5-triazin-2-yl]benzyl}-3,3,3-trifluoro-2,2-dimethylpropionamide]",1.3
4,"CC(C)Cc1ccc(-c2nc(O)nc(-c3cc(CNC(=O)C(C)(C)C)ccc3Cl)n2)cc1 [Example 1-51, N-{4-chloro-3-[4-(4-isobutylphenyl)-6-hydroxy-1,3,5-triazin-2-yl]benzyl}-2,2-dimethylpropionamide]",1
5,"Cc1ccc(-c2nc(O)nc(-c3cc(CNC(=O)C(C)(C)C(F)(F)F)ccc3Cl)n2)cc1F [Example 1-81, N-{4-chloro-3-[4-(3-fluoro-4-methylphenyl)-6-hydroxy-1,3,5-triazin-2-yl]benzyl}-3,3,3-trifluoro-2,2-dimethylpropionamide]",0.6
6,"CO[C@](C)(C(=O)NCc1ccc(Cl)c(-c2nc(O)nc(-c3ccc(Cl)c(C)c3)n2)c1)C(F)(F)F [Example 1-136, (R)—N-{4-chloro-3-[4-(4-chloro-3-methylphenyl)-6-hydroxy-1,3,5-triazin-2-yl]benzyl}-3,3,3-trifluoro-2-methoxy-2-methylpropionamide]",0.5
7,"CC(C)COc1ccc(-c2nc(O)nc(-c3cc(CNC(=O)C(C)(C)C(F)(F)F)ccc3Cl)n2)cc1 [Example 1-109, N-{4-chloro-3-[4-hydroxy-6-(4-isobutoxyphenyl)-1,3,5-triazin-2-yl]benzyl}-3,3,3-trifluoro-2,2-dimethylpropionamide]",2.5
8,CO[C@](C)(C(=O)NCc1ccc(Cl)c(-c2nc(O)nc(-c3ccc(CC(C)C)cc3)n2)c1)C(F)(F)F [Example 1-177],1.3
9,CC(C)CC(=O)N(C)Cc1ccc(Cl)c(-c2nc(O)nc(-c3ccccc3)n2)c1 [Example 1-226],2200
10,CN(C)C(=O)CCc1ccc(Cl)c(-c2nc(O)nc(-c3ccc(OCC(C)(C)C)cc3)n2)c1 [Example 1-218],70
11,CC(C)(CC(F)(F)F)C(=O)NCc1ccc(Cl)c(-c2nc(O)nc(-c3ccc(OCC4CC4)cc3)n2)c1 [Example 1-166],1.1
12,COc1ccc(-c2nc(O)nc(-c3cc(CNC(=O)C(C)(C)C(F)(F)F)ccc3Cl)n2)cc1 [Example 1-139],0.6
13,Cc1ccc(-c2nc(O)nc(-c3cc(CNC(=O)C(C)(C)C)ccc3Cl)n2)cc1 [Example 1-63],0.5
14,O=C(NCc1ccc(Cl)c(-c2nc(O)nc(-c3cccc(C(F)(F)F)c3)n2)c1)C1(C(F)(F)F)CCCC1 [Example 1-79],1.2
15,Oc1nc(-c2ccc(C(F)(F)F)cc2)nc(-c2cc(OC(F)(F)F)ccc2Cl)n1 [Example 1-5],672
16,CC(C)(C(=O)NCc1ccc(Cl)c(-c2nc(O)nc(-c3ccc(OCC4(C(F)(F)F)CC4)cc3)n2)c1)C(F)(F)F [Example 1-164],3.7
17,Cc1cccc(-c2nc(O)nc(-c3cc(CNC(=O)C(C)(C)C(F)(F)F)ccc3Cl)n2)c1 [Example 1-111],1.2
18,CC(=O)OCc1ccc(Cl)c(-c2nc(O)nc(-c3ccc(C(F)(F)F)cc3)n2)c1 [Example 1-25],108
19,CCCc1ccc(-c2nc(O)nc(-c3cc(CNC(=O)C(C)(C)C)ccc3Cl)n2)cc1 [Example 1-44],0.6
20,CC(C)(C(=O)NCc1ccc(Cl)c(-c2nc(O)nc(-c3ccc(OCC4CCC4)cc3)n2)c1)C(F)(F)F [Example 1-116],2
21,CCS(=O)(=O)NCc1ccc(Cl)c(-c2nc(O)nc(-c3ccc(C(F)(F)F)cc3)n2)c1 [Example 1-31],1
22,CCC(C)(C)C(=O)N(C)Cc1ccc(Cl)c(-c2nc(O)nc(-c3ccccc3)n2)c1 [Example 1-231],45
23,CCC(=O)N(C)Cc1ccc(Cl)c(-c2nc(O)nc(-c3ccccc3)n2)c1 [Example 1-224],5800
24,O=C(NCc1ccc(Cl)c(-c2nc(O)nc(-c3ccccc3)n2)c1)C1CCC1 [Example 1-66],4.1
25,CC(C)(C)COc1ccc(-c2nc(O)nc(-c3cc(CNC(=O)C(C)(C)C(F)(F)F)ccc3C(F)(F)F)n2)cc1 [Example 1-208],16
26,CCC[C@@H](C)Oc1ccc(-c2nc(O)nc(-c3cc(CNC(=O)C(C)(C)C(F)(F)F)ccc3Cl)n2)cc1 [Example 1-156],4.1
27,"CO[C@](C)(C(=O)NC(C)c1ccc(Cl)c(-c2nc(O)nc(-c3ccc(F)c(C)c3)n2)c1)C(F)(F)F (single isomer, unassigned) [Example 1-189]",1100

# Other lines, results leading:
row,IC50 [nM],Structure (SMILES)
1,8.9,Oc1nc(-c2ccc(C#Cc3ccccn3)cc2)nc(-c2c(Cl)cccc2OCc2ccccn2)n1 [Example 2-97]
2,2.2,C[C@H](Oc1cccc(Cl)c1-c1nc(O)nc(-c2ccc(C#Cc3ccccc3)cc2)n1)c1ccccn1 [Example 2-86]
3,7.4,Cc1cc(C)nc(COc2cccc(C(F)(F)F)c2-c2nc(O)nc(-c3ccc(C#Cc4ccccc4)cc3)n2)c1 [Example 2-110]
4,4.4,Oc1nc(-c2ccc(C#CC3CCCCC3)cc2)nc(-c2c(Cl)cccc2OCc2ccccn2)n1 [Example 2-92]
5,5.5,Cc1cccc(COc2cccc(C(F)(F)F)c2-c2nc(O)nc(-c3ccc(C#Cc4cccc(F)c4)cc3)n2)n1 [Example 2-116]
6,6400,Cc1cccc(C)c1-c1nc(O)nc(-c2ccc(C(F)(F)F)cc2F)n1 [Example 2-9]
7,6,Cc1cccc(C)c1-c1nc(O)nc(-c2ccc(C#Cc3ccccc3)cc2)n1 [Example 2-11]
8,3,Oc1nc(-c2ccc(C#Cc3ccccc3)cc2)nc(-c2c(OCc3ccc(F)cn3)cccc2C(F)(F)F)n1 [Example 2-115]
9,5.9,Oc1nc(-c2ccc(C#Cc3ccccc3)cc2)nc(-c2c(OCc3ccc(Cl)cn3)cccc2C(F)(F)F)n1 [Example 2-112]
10,16,O=C1N(Cc2ccc(Cl)c(-c3nc(O)nc(-c4ccccc4)n3)c2)CC12CCCCC2 [Example 1-248]
11,6.2,Cc1ccc(C#Cc2ccc(-c3nc(O)nc(-c4c(OCc5cccc(C)n5)cccc4C(F)(F)F)n3)cc2)cc1 [Example 2-127]
12,2.8,COc1ccccc1C#Cc1ccc(-c2nc(O)nc(-c3c(OCc4cccc(C)n4)cccc3C(F)(F)F)n2)cc1 [Example 2-109]
13,249,Cc1cccc(C)c1-c1nc(O)nc(-c2ccc(Cl)cc2)n1 [Example 2-25]
14,150,"COC1CCC2(CC1)CN(Cc1ccc(Cl)c(-c3nc(O)nc(-c4ccccc4)n3)c1)C2=O (single isomer, unassigned) [Example 1-267]"
